How the values were obtained:
[1] = test system: spontaneous tumors; details: 10 mg by gavage; X-ray imaging about two hours after; mice showing spontaneous tumors; control images of same mice prior to treatment did not show foci
Excerpt: As described above, oxidative foci or tumors may be identified by X-ray radiographic imaging of animals following administration of an indigogenic compound of the present invention. The radio-opaque indigo-like product formed and deposited with residence time in FROS-containing tumor tissues may then be detected.
In this example, female C3H/HeN mice were obtained as multiparous retired breeders (i.e., after 3 to 4 litters) that were positive for a mammary tumor virus. See, e.g., Sellitti, D. F., Tseng, Y-C., and Latham, K. R., “Effect of 3,5,3′-Triiodo-L-thyronine on the Incidence and Growth Kinetics of Spontaneous Mammary Tumors in C3H/HeN Mice,” Cancer Research, 41: 5015-19 (1981), the entire contents and disclosure of which are incorporated herein by reference. Mice showing spontaneous tumors were given 10 mg of 5-Iodo-Indoxyl-3′,5′-Diiodo-4′-hydroxy ether substrate (product of Example 4) by gavage. These mice were then subjected to X-ray imaging of the tumors about two hours after being fed the iodo-indigogenic compound. […] When developed, the X-ray film appears dark in areas where more transmission occurs and light in areas where less transmission occurs.

[2] = test system: sites of the wound or injury; details: mice with small injuries or wounds (cuts, scratches); data not shown
[3] = Cleavage of the C—C bond during the oxidative dehalogenation reaction; assay type: physicochemical
Excerpt: It has also been discovered that other types of bonds or linkages may also be cleaved by oxidative or free radical-mediated dehalogenation of the phenol ring. For example, as described herein, it has now been observed that a carbonyl linkage, a nitrogen linkage, a sulfinyl linkage and possibly a C—C bond on the phenol ring may also be cleaved by the oxidative dehalogenation reaction. These bonds are also considered stable, and their cleavage in connection with the dehalogenation reaction is surprising as well. One caveat with the C—C bond or linkage is that depending on the particular starting compound structure and the substituents or groups attached to the halogenated phenol ring via the C—C bond, the C—C bond or linkage may or may not be generally cleaved during or following the dehalogenation reaction (see below). […] However, other compounds do become cleaved. It is important to note that whether a C—C bond of a particular starting compound is “cleavable,” or becomes cleaved, may not be all-or-nothing (i.e., the C—C bond may be considered non-cleavable even though a small or minute amount of cleavage may occur, and vice versa). Thus, the amount or percentage of cleavage may be partial with the alternatively cleaved or non-cleaved product being possibly undetected or minute. […]

[4] = Spontaneous dehalogenation and ether cleavage in buffered aqueous solution exposed to sunlight; assay type: physicochemical; details: about 1 mM in carbonate buffer (pH 8.0), exposed to sunlight for about one hour; clear yellow/orange solution formed
Excerpt: In contrast to reductive deiodination, spontaneous dehalogenation (e.g., deiodination) of a halogentated phenol ring in the presence of an oxidizing agent(s) and/or free radical(s) with cleavage of a chemical linkage, such as an ether linkage, etc., between the phenol ring and a conjugated compound has not been described. According to the present invention, cleavage of the ether linkage between the aromatic rings of thyroid hormone may form visibly colored quinone and iodine-containing products in buffered aqueous solutions in vitro, and this ether cleavage reaction may be accelerated under basic pH conditions and with exposure to ionizing radiation or light. These conditions favor the increased formation of oxidizing agents and/or free radicals, which are believed to promote the reaction. […] A quinone and an iodotyrosine product are also formed by cleavage of the ether linkage during the reaction. According to embodiments of the present invention, a spontaneous reaction of dehalogenation and cleavage of a chemical bond is proposed for the targeted delivery and release of a drug compound at or to sites of inflammation or disease. This spontaneous reaction is further proposed as a basis for scavenging free radicals and/or oxidative agents (FROS) as well as for the creation of a detectable compound(s) that may be used for diagnostic purposes.

Compound: Oc1c(I)cc(Oc2c[nH]c3ccc(I)cc23)cc1I [Example 4, 5-Iodo-Indolyl-3′,5′-Diiodo-4′-hydroxyl-p-Phenol Ether]
- radio-opaque tumor regions or foci by X-ray (formation and deposit of indigo-like product in oxidative tumor tissues) [1]: radio-opaque tumor regions or foci
- X-ray detection at sites of wound or injury [2]: strong detection was observed

Compound: N[C@@H](Cc1ccc(O)c(I)c1)C(=O)O [MIT, 3-iodo-4-hydroxy-L-phenylalanine]
- cleavage of C—C bond with the dehalogenation reaction [3]: generally not to be cleaved

Compound: N[C@@H](Cc1cc(I)c(Oc2cc(I)c(O)c(I)c2)c(I)c1)C(=O)O [thyroxine]
- cleavage of ether linkage with release of iodide [4]: the ether linkage is broken spontaneously

Source: patent US9144613B2, “Halogenated phenols for diagnostics, antioxidant protection and drug delivery” (priority 2012, dated 2015)
